Assay results as given in the NIST ThermoML archive (doi:10.1021/acs.jced.5b01023).

Assay: xn = mol fraction of the nth substance listed
Conditions: for surface tension liquid-gas: Wilhelmy plates; for viscosity / mass density: 101 kPa, Liquid; for viscosity: Capillary tube (Ostwald / Ubbelohde) method; for mass density: Vibrating tube method

CC(=O)[O-].CCn1cc[n+](C)c1 [1-ethyl-3-methylimidazolium acetate] + CC(C)O
Conditions | mass density [kg/m3] | surface tension liquid-gas [mN/m] | viscosity [mPa·s]
288.15 K, x1 = 0.1 | 852.68 | 23.6 | 5.55
288.15 K, x1 = 0.2 | 901.6 | 25.5 | 8.842
288.15 K, x1 = 0.3 | 941.78 | 27.5 | 14.85
288.15 K, x1 = 0.4 | 976.37 | 29.4 | 24.85
288.15 K, x1 = 0.5 | 1006.01 | 31.5 | 40.69
288.15 K, x1 = 0.5997 | – | 33 | –
288.15 K, x1 = 0.5998 | 1031.55 | – | 64.17
288.15 K, x1 = 0.7 | 1053.83 | 35.1 | 100.7
288.15 K, x1 = 0.7993 | 1072.97 | – | 147.9
288.15 K, x1 = 0.7994 | – | 37.7 | –
288.15 K, x1 = 0.9 | 1090.17 | 41.2 | 212.4
288.15 K, x1 = 1 | 1105.2 | 47.7 | 283.8
298.15 K, x1 = 0.1 | 845.22 | 23.2 | 4.171
298.15 K, x1 = 0.2 | 894.12 | 25.1 | 6.64
298.15 K, x1 = 0.3 | 934.95 | 26.9 | 10.84
298.15 K, x1 = 0.4 | 969.7 | 29 | 17.31
298.15 K, x1 = 0.5 | 999.47 | 31.2 | 26.86
298.15 K, x1 = 0.5997 | – | 32.6 | –
298.15 K, x1 = 0.5998 | 1025.12 | – | 40.4
298.15 K, x1 = 0.7 | 1047.51 | 34.5 | 58.42
298.15 K, x1 = 0.7993 | 1066.77 | – | 81.31
298.15 K, x1 = 0.7994 | – | 37.4 | –
298.15 K, x1 = 0.9 | 1084.05 | 40.9 | 109.9
298.15 K, x1 = 1 | 1099.03 | 47.1 | 139
308.15 K, x1 = 0.1 | 837.68 | 22.5 | 3.204
308.15 K, x1 = 0.2 | 887.04 | 24.6 | 5.142
308.15 K, x1 = 0.3 | 928.14 | 26.6 | 8.186
308.15 K, x1 = 0.4 | 963.07 | 28.3 | 12.6
308.15 K, x1 = 0.5 | 992.98 | 30.5 | 18.61
308.15 K, x1 = 0.5997 | – | 32.1 | –
308.15 K, x1 = 0.5998 | 1018.74 | – | 26.86
308.15 K, x1 = 0.7 | 1041.21 | 34.1 | 36.9
308.15 K, x1 = 0.7993 | 1060.56 | – | 49.32
308.15 K, x1 = 0.7994 | – | 37 | –
308.15 K, x1 = 0.9 | 1077.92 | 40.5 | 63.37
308.15 K, x1 = 1 | 1092.93 | 46.6 | 77.32
318.15 K, x1 = 0.1 | 829.99 | 21.8 | 2.511
318.15 K, x1 = 0.2 | 879.94 | 24.1 | 4.067
318.15 K, x1 = 0.3 | 921.35 | 26.1 | 6.344
318.15 K, x1 = 0.4 | 956.47 | 27.9 | 9.506
318.15 K, x1 = 0.5 | 986.52 | 29.9 | 13.61
318.15 K, x1 = 0.5997 | – | 31.6 | –
318.15 K, x1 = 0.5998 | 1012.39 | – | 18.87
318.15 K, x1 = 0.7 | 1034.96 | 33.7 | 25.08
318.15 K, x1 = 0.7993 | 1054.38 | – | 32.33
318.15 K, x1 = 0.7994 | – | 36.8 | –
318.15 K, x1 = 0.9 | 1071.81 | 40.2 | 40.36
318.15 K, x1 = 1 | 1086.86 | 46.1 | 47.37
328.15 K, x1 = 0.1 | 822.14 | 20.8 | 1.998
328.15 K, x1 = 0.2 | 872.8 | 23.5 | 3.272
328.15 K, x1 = 0.3 | 914.57 | 25.5 | 5.049
328.15 K, x1 = 0.4 | 949.91 | 27.4 | 7.378
328.15 K, x1 = 0.5 | 980.11 | 29.6 | 10.28
328.15 K, x1 = 0.5997 | – | 31.5 | –
328.15 K, x1 = 0.5998 | 1006.1 | – | 13.77
328.15 K, x1 = 0.7 | 1028.76 | 33.4 | 17.83
328.15 K, x1 = 0.7993 | 1048.25 | – | 22.39
328.15 K, x1 = 0.7994 | – | 36.4 | –
328.15 K, x1 = 0.9 | 1065.74 | 40 | 27.23
328.15 K, x1 = 1 | 1080.82 | 45.9 | 31.29
338.15 K, x1 = 0.1 | 814.08 | 20.1 | 1.617
338.15 K, x1 = 0.2 | 865.6 | 22.6 | 2.683
338.15 K, x1 = 0.3 | 907.78 | 25 | 4.086
338.15 K, x1 = 0.4 | 943.37 | 26.9 | 5.876
338.15 K, x1 = 0.5 | 973.74 | 29.1 | 8.019
338.15 K, x1 = 0.5997 | – | 30.7 | –
338.15 K, x1 = 0.5998 | 999.84 | – | 10.46
338.15 K, x1 = 0.7 | 1022.6 | 32.9 | 13.23
338.15 K, x1 = 0.7993 | 1042.17 | – | 16.22
338.15 K, x1 = 0.7994 | – | 36 | –
338.15 K, x1 = 0.9 | 1059.72 | 39.3 | 19.37
338.15 K, x1 = 1 | 1074.83 | 45.4 | 21.85

CC(=O)[O-].CCn1cc[n+](C)c1 [1-ethyl-3-methylimidazolium acetate] + CCCO
Conditions | mass density [kg/m3] | surface tension liquid-gas [mN/m] | viscosity [mPa·s]
288.15 K, x1 = 0.1017 | 869.4 | 25.8 | 4.866
288.15 K, x1 = 0.2004 | 915.48 | 27.4 | 7.99
288.15 K, x1 = 0.3001 | 953.82 | 29.7 | 13.36
288.15 K, x1 = 0.3998 | 986.05 | 31.7 | 22.26
288.15 K, x1 = 0.4997 | 1013.52 | 33.7 | 36.38
288.15 K, x1 = 0.5996 | 1037.16 | 35.6 | 57.47
288.15 K, x1 = 0.6998 | 1057.65 | 37.7 | 90.15
288.15 K, x1 = 0.8002 | 1075.6 | 40.2 | 135
288.15 K, x1 = 0.8991 | 1090.97 | 43.2 | 196.8
288.15 K, x1 = 1 | 1105.2 | 47.7 | 283.8
298.15 K, x1 = 0.1017 | 862.03 | 25.2 | 3.822
298.15 K, x1 = 0.2004 | 908.4 | 26.5 | 6.163
298.15 K, x1 = 0.3001 | 946.94 | 29.2 | 9.963
298.15 K, x1 = 0.3998 | 979.34 | 31 | 15.81
298.15 K, x1 = 0.4997 | 1006.95 | 33.1 | 24.44
298.15 K, x1 = 0.5996 | 1030.7 | 34.7 | 36.48
298.15 K, x1 = 0.6998 | 1051.29 | 37.2 | 53.65
298.15 K, x1 = 0.8002 | 1069.33 | 39.7 | 75.63
298.15 K, x1 = 0.8991 | 1084.89 | 42.7 | 103.9
298.15 K, x1 = 1 | 1099.03 | 47.1 | 139
308.15 K, x1 = 0.1017 | 854.63 | 24.7 | 3.038
308.15 K, x1 = 0.2004 | 901.33 | 25.8 | 4.878
308.15 K, x1 = 0.3001 | 940.1 | 28.7 | 7.657
308.15 K, x1 = 0.3998 | 972.66 | 30.7 | 11.7
308.15 K, x1 = 0.4997 | 1000.41 | 32.7 | 17.3
308.15 K, x1 = 0.5996 | 1024.28 | 34.2 | 24.75
308.15 K, x1 = 0.6998 | 1044.96 | 36.6 | 34.59
308.15 K, x1 = 0.8002 | 1063.09 | 39.2 | 46.49
308.15 K, x1 = 0.8991 | 1078.75 | 42.2 | 60.98
308.15 K, x1 = 1 | 1092.93 | 46.6 | 77.32
318.15 K, x1 = 0.1017 | 847.19 | 23.9 | 2.461
318.15 K, x1 = 0.2004 | 894.27 | 25.3 | 3.952
318.15 K, x1 = 0.3001 | 933.29 | 28.5 | 6.043
318.15 K, x1 = 0.3998 | 966.03 | 30.2 | 8.961
318.15 K, x1 = 0.4997 | 993.92 | 32.2 | 12.78
318.15 K, x1 = 0.5996 | 1017.9 | 33.3 | 17.58
318.15 K, x1 = 0.6998 | 1038.68 | 36.1 | 23.68
318.15 K, x1 = 0.8002 | 1056.89 | 38.8 | 30.86
318.15 K, x1 = 0.8991 | 1072.62 | 41.8 | 37.98
318.15 K, x1 = 1 | 1086.86 | 46.1 | 47.37
328.15 K, x1 = 0.1017 | 839.68 | 23 | 2.018
328.15 K, x1 = 0.2004 | 887.21 | 25 | 3.268
328.15 K, x1 = 0.3001 | 926.51 | 27.9 | 4.878
328.15 K, x1 = 0.3998 | 959.44 | 30 | 7.05
328.15 K, x1 = 0.4997 | 987.48 | 31.7 | 9.766
328.15 K, x1 = 0.5996 | 1011.58 | 33.1 | 13.01
328.15 K, x1 = 0.6998 | 1032.45 | 35.8 | 17.05
328.15 K, x1 = 0.8002 | 1050.74 | 38.1 | 21.36
328.15 K, x1 = 0.8991 | 1066.53 | 41.4 | 25.84
328.15 K, x1 = 1 | 1080.82 | 45.9 | 31.29
338.15 K, x1 = 0.1017 | 832.08 | 22.3 | 1.68
338.15 K, x1 = 0.2004 | 880.13 | 24 | 2.686
338.15 K, x1 = 0.3001 | 919.75 | 27.3 | 3.946
338.15 K, x1 = 0.3998 | 952.89 | 29.5 | 5.672
338.15 K, x1 = 0.4997 | 981.08 | 31.3 | 7.675
338.15 K, x1 = 0.5996 | 1005.3 | 32.6 | 9.978
338.15 K, x1 = 0.6998 | 1026.26 | 35.5 | 12.68
338.15 K, x1 = 0.8002 | 1044.63 | 37.9 | 15.57
338.15 K, x1 = 0.8991 | 1060.48 | 41.2 | 18.49
338.15 K, x1 = 1 | 1074.83 | 45.4 | 21.85
348.15 K, x1 = 0.1017 | 824.34 | 21.5 | 1.413
348.15 K, x1 = 0.2004 | 873.02 | 23.6 | 2.26
348.15 K, x1 = 0.3001 | 912.99 | 27.1 | 3.292
348.15 K, x1 = 0.3998 | 946.36 | 29.3 | 4.651
348.15 K, x1 = 0.4997 | 974.71 | 30.8 | 6.175
348.15 K, x1 = 0.5996 | 999.06 | 31.8 | 7.866
348.15 K, x1 = 0.6998 | 1020.12 | 34.5 | 9.81
348.15 K, x1 = 0.8002 | 1038.57 | 37.6 | 11.81
348.15 K, x1 = 0.8991 | 1054.49 | 41 | 13.78
348.15 K, x1 = 1 | 1068.88 | 45.1 | 16.01
